The text below walks through data of BindingDB's records for doi:10.7270/Q2V40SP7 (The Scripps Research Institute Molecular Screening Center, 2011).

This assay addresses T1, Peroxisome proliferator-activated receptor gamma (Homo sapiens, UniProt P37231).
T1 sequence (P37231 whole entry): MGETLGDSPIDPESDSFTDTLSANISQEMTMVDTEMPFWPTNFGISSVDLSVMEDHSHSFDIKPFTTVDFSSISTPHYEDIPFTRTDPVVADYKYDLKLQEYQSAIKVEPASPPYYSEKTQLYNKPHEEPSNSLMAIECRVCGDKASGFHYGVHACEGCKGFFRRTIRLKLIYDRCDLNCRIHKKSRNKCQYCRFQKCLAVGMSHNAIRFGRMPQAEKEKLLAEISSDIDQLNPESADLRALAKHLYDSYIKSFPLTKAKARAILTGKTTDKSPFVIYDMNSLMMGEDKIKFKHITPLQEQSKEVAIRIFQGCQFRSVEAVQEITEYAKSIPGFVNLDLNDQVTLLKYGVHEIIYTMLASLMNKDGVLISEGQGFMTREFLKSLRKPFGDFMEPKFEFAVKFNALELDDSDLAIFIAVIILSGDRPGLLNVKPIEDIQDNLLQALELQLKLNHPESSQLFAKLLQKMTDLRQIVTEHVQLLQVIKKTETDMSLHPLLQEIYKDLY
In words: competitive ligand displacement at PPARg – biochemical, TR-FRET, LanthaScreen, PPARg partial agonist project, dose response (AID 504446). (In general: Time-resolved FRET reads energy transfer from a long-lived donor to a nearby acceptor.)

As usually defined, the IC50 is the point on the concentration scale where inhibition reaches its midpoint. The compound `Cc1ccc2nc(N3C(=O)C(=O)C(C(=O)c4ccc(C)o4)C3c3ccco3)sc2c1` (centres undefined) yielded an IC50 of 2.6 µM. This counts as single-digit micromolar.

Take `Cc1ccc2nc(N3C(=O)C(=O)C(C(=O)c4ccco4)C3c3ccc(C)o3)sc2c1` (centres undefined) [3-[2-furanyl(oxo)methyl]-4-hydroxy-1-(6-methyl-1,3-benzothiazol-2-yl)-2-(5-methyl-2-furanyl)-2H-pyrrol-5-one;oxalic acid]: the IC50 was determined as 14 µM.

The compound `CCOc1ccc2nc(N3C(=O)C(=O)C(C(=O)c4ccco4)C3c3ccco3)sc2c1` (centres undefined) [1-(6-ethoxy-1,3-benzothiazol-2-yl)-2-(2-furanyl)-3-[2-furanyl(oxo)methyl]-4-hydroxy-2H-pyrrol-5-one] returned an IC50 of 8.2 µM.

`COc1ccc2nc(N3C(=O)C(=O)C(C(=O)c4ccco4)C3c3ccc(C)o3)sc2c1` (centres undefined) displayed an IC50 of 1.2 µM.
